Experimental data reported in patent publication US8569264B2, “Antibacterial 4,5-substituted aminoglycoside analogs having multiple substituents” (ISIS Pharmaceuticals, Inc., priority 2005, dated 2013).
≈ marks a conversion by molar mass, not a printed value. Like-named read-outs stand apart in the source and are kept apart here.

Assays:
[1] = target: 16S ribosomal subunit RNA target; assay: Mass spectrometry based binding assay (FTICR), 16S
Description: In a typical experiment, 10 μL of an aqueous solution containing 100 mM ammonium acetate buffer, […], and 33% isopropyl alcohol (to aid ion desolvation) was prepared with different concentrations of each ligand or ligand mixture Samples were introduced into the electrospray ionization source (negative ionization mode) at 1 μL/min and ions were stored for 1 sec in an RF-only hexapole following desolvation. The abundances were integrated from the respective ions for free RNA and the ligand-RNA complex. The primary (1:1 RNA:ligand) and secondary (1:2 complex, if observed). […] The peak ratios were measured at each concentration, then a plot of complex/free RNA versus concentration of ligand added was fitted to a second (or higher) order binding polynomial to determine the KD.

[2] = system: E. coli S30 bacterial extract (pBestLuc firefly luciferase reporter); assay: Coupled bacterial transcription/translation assay; type: biochemical; conditions: read-out: Trans/Trans IC50
Description: The DNA template, pBestLuc™ (Promega), is a plasmid containing a reporter gene for firefly luciferase fused to a strong tac promoter and ribosome binding site. Messenger RNA from 1 μg pBestLuc is transcribed and translated in E. coli S30 bacterial extract in the presence or absence of test compound. Compounds are tested in a black 96 well microtiter plate with an assay volume of 35 μL. […] The transcription/translation reaction is incubated for 35 minutes at 37° C. followed by detection of functional luciferase with the addition of 30 μL LucLite™ (Packard). Light output is quantitated on a Packard TopCount.

E. Coli = assay: MIC, E. Coli; type: cell-based
Description: (§1) The MIC assays are carried out in 150 μL volume in duplicate in 96-well clear flat-bottom plates. The bacterial suspension from an overnight culture growth in appropriate medium is added to a solution of test compound in 4% DMSO in water. Final bacterial inoculum is approximately 10^5-10^6 CFU/well. […] Both ampicillin and tetracycline are used as antibiotic-positive controls in each screening assay for S. pyogenes, E. coli imp-, E. coli, S. aureus, E. faecalis, K. pneumoniae and P. vulgaris. Ciprofloxacin is used as an antibiotic positive control in each screening assay for P. aeruginosa.

S. Aureus = assay: MIC, S. Aureus; type: cell-based
Description: as §1

[3] = target: 18S ribosomal subunit RNA target; assay: Mass spectrometry based binding assay (FTICR), 18S
Description: In a typical experiment, 10 μL of an aqueous solution containing 100 mM ammonium acetate buffer, 2.5 or 5 μM of each RNA, and 33% isopropyl alcohol (to aid ion desolvation) was prepared with different concentrations of each ligand or ligand mixture Samples were introduced into the electrospray ionization source (negative ionization mode) at 1 μL/min and ions were stored for 1 sec in an RF-only hexapole following desolvation. The abundances were integrated from the respective ions for free RNA and the ligand-RNA complex. The primary (1:1 RNA:ligand) and secondary (1:2 complex, if observed). […] The peak ratios were measured at each concentration, then a plot of complex/free RNA versus concentration of ligand added was fitted to a second (or higher) order binding polynomial to determine the KD.

[4] = system: Staphylococcus aureus (Smith Strain ATCC 13709); assay: Staphylococcus aureus mouse protection assay; type: in vivo, mice; conditions: Staph Conc. 10^6, 10% Mucin, the 13th table
Description: Two of the novel aminoglycoside compounds of the invention were examined for their anitbacterial activity against staphylococcus aureus. Mice were fed with autoclaved commercial food pellets and sterile water ad libitum. Animals were inoculated intraperitoneally with 0.5 mL/mouse of the indicated concentration of S. aureus (ATCC 13709) containing 10% mucin. There were 10 mice in each treatment group and compounds were administered subcutaneously one and 3 hour after infection. Compounds 15a (R4═R5═CH3) and 15j (R4═H, R5═(CH2)2C6H5)) were used at 75 mg/kg, 37.5 mg/kg, 18.8 mg/kg, 9.4 mg/kg, 4.7 mg/kg, 2.3 mg/kg, 1.17 mg/kg and 0.5 mg/kg. Amakacin, paromomycin and neomycin were used as the positive controls at concentrations of 2 mg/kg, 1 mg/kg and 0.5 mg/kg.
Test compound was administered as an aqueous buffer solution (phosphate buffered saline (PBS), pH=7.4).

[5] = marked with an asterisk: run at 500 nM RNA, Example 105
[6] = FTICR mass spectrometry, run at 100 nM RNA, Example 105

## NCCCNCCOC1C(OC2C(O)C(N)CC(N)C2OC2OC(CO)C(O)C(O)C2N)OC(CO)C1OC1OC(CN)C(O)C(O)C1N (stereo not shown) [Compound 9c]
[1]; [5]
  Kd: 400 nM
[2]; Example 105
  IC50: 300 nM
E. Coli; Example 105
  MIC E. Coli.: 25 to 50 µM
S. Aureus; Example 105
  MIC S. Aureus: 3 to 6 µM

## NCCCNCC1OC(OC2C(N)CC(N)C(O)C2OC2OC(CO)C(OC3OC(CN)C(O)C(O)C3N)C2O)C(N)C(O)C1O (stereo not shown) [Compound 15b]
[3]; Example 108
  Kd: 1400 nM
[1]; Example 108
  Kd: 1600 nM
[2]; Example 108
  IC50: 200 nM
E. Coli; Example 108
  MIC E. Coli.: 2.5-5^ uM
S. Aureus; Example 108
  MIC S. Aureus: 1.3 to 2.5 µM

## NCCN(CCN)CCOC1C(OC2C(O)C(N)CC(N)C2OC2OC(CO)C(O)C(O)C2N)OC(CO)C1OC1OC(CN)C(O)C(O)C1N (stereo not shown) [Compound 9h]
[1]; [6]
  Kd: 9200 nM
[2]; Example 105
  IC50: 1000 nM
E. Coli; Example 105
  MIC E. Coli.: >50 µM
S. Aureus; Example 105
  MIC S. Aureus: 25 to 50 µM

## NCCOC1C(OC2C(O)C(N)CC(N)C2OC2OC(CO)C(O)C(O)C2N)OC(CO)C1OC1OC(CN)C(O)C(O)C1N (stereo not shown) [Compound 9f]
[1]; [6]
  Kd: 300 nM
[2]; Example 105
  IC50: 400 nM
E. Coli; Example 105
  MIC E. Coli.: 12 to 25 µM
S. Aureus; Example 105
  MIC S. Aureus: 2 to 3 µM

## NCC1OC(OC2C(CO)OC(OC3C(O)C(N)CC(N)C3OC3OC(CN4CCOCC4)C(O)C(O)C3N)C2O)C(N)C(O)C1O (stereo not shown) [Compound 15c]
[3]; Example 108
  Kd: 3000 nM
[1]; Example 108
  Kd: 3600 nM
[2]; Example 108
  IC50: 300 nM
E. Coli; Example 108
  MIC E. Coli.: 20 to 40 µM
S. Aureus; Example 108
  MIC S. Aureus: 10 to 20 µM

## CN(C)CCOC[C@H]1O[C@@H](O[C@@H]2[C@@H](O)[C@H](N)C[C@H](N)[C@H]2O[C@H]2O[C@H](CO)[C@@H](O)[C@H](O)[C@H]2N)[C@H](O)[C@@H]1O[C@H]1O[C@@H](CN)[C@@H](O)[C@H](O)[C@H]1N [Compound 54, 5″-O-(2-N,N-dimethylaminoethyl) paromomycin]
[3]; FTICR mass spectrometry, Example 105
  Kd: 68000 nM
[1]; [6]
  Kd: 4100 nM
[2]; Example 105
  IC50: 300 nM
E. Coli; Example 105
  MIC E. Coli.: 6 to 12 µM
S. Aureus; Example 105
  MIC S. Aureus: 25 to 50 µM

## NCCNCCOC1C(OC2C(O)C(N)CC(N)C2OC2OC(CO)C(O)C(O)C2N)OC(CO)C1OC1OC(CN)C(O)C(O)C1N (stereo not shown) [Compound 9d]
[1]; [6]
  Kd: 700 nM
[2]; Example 105
  IC50: 300 nM
E. Coli; Example 105
  MIC E. Coli.: 6 to 12 µM
S. Aureus; Example 105
  MIC S. Aureus: 2 to 3 µM

## NCC1OC(OC2C(CF)OC(OC3C(O)C(N)CC(N)C3OC3OC(CO)C(O)C(O)C3N)C2O)C(N)C(O)C1O (stereo not shown) [Compound 61, 5″-deoxy-5″-fluoro paromomycin]
[1]; [6]
  Kd: 1100 nM
[2]; Example 105
  IC50: 300 nM
E. Coli; Escherichia coli, Example 105
  MIC: > 50 µM
S. Aureus; Staphylococcus aureus, Example 105
  MIC: 12 to 25 µM (≈ 7.41 to 15.4 µg/mL)

## neomycin [reference compound]
[4]; 0.5 mg/kg subcutaneously
  # Dead mice/Total mice in group: 7/10
[4]; 1 mg/kg subcutaneously
  # Dead mice/Total mice in group: 10/10
[4]; 2 mg/kg subcutaneously
  # Dead mice/Total mice in group: 4/10

## CN(C)CCOC1C(OC2C(O)C(N)CC(N)C2OC2OC(CO)C(O)C(O)C2N)OC(CO)C1OC1OC(CN)C(O)C(O)C1N (stereo not shown) [Compound 9g]
[1]; [5]
  Kd: 900 nM
[2]; Example 105
  IC50: 200 nM
E. Coli; Example 105
  MIC E. Coli.: 12 to 52 µM
S. Aureus; Example 105
  MIC S. Aureus: 6 to 12 µM

## NCC1OC(OC2C(CO)OC(OC3C(O)C(N)CC(N)C3OC3OC(CO)C(O)C(O)C3N)C2OCCNc2ccccc2)C(N)C(O)C1O (stereo not shown) [Compound 9l]
[2]; Example 105
  IC50: 100 nM
E. Coli; Example 105
  MIC E. Coli.: 50 to 100 µM
S. Aureus; Example 105
  MIC S. Aureus: 6 to 12 µM

## NCCCCNCC1OC(OC2C(N)CC(N)C(O)C2OC2OC(CO)C(OC3OC(CN)C(O)C(O)C3N)C2O)C(N)C(O)C1O (stereo not shown) [Compound 15f]
[3]; Example 108
  Kd: 6000 nM
[1]; Example 108
  Kd: 6300 nM
E. Coli; Example 108
  MIC E. Coli.: 2.5-5^ uM
S. Aureus; Example 108
  MIC S. Aureus: 10 to 20 µM
